Experimental data: patent US8134015B2, “Compound inhibiting in vivo phosphorous transport and medicine containing the same” (Kyowa Hakko Kirin Co., Ltd., priority 2003, dated 2012)

These compounds were tested against T1, rat NaPi-2b (Rattus norvegicus, UniProt Q9JJ09) (assay: Sodium-dependent phosphate uptake of Xenopus oocytes which expressed NaPi-2b (32P)). Details: Xenopus oocytes expressing rat NaPi-2b, 32P radioactive phosphorus; read-out: IC50 (phosphate uptake inhibitory activity).
T1 construct: expressed in transfected cells; host or cells: Xenopus oocytes injected with cRNA
T1 sequence (Q9JJ09 1-695): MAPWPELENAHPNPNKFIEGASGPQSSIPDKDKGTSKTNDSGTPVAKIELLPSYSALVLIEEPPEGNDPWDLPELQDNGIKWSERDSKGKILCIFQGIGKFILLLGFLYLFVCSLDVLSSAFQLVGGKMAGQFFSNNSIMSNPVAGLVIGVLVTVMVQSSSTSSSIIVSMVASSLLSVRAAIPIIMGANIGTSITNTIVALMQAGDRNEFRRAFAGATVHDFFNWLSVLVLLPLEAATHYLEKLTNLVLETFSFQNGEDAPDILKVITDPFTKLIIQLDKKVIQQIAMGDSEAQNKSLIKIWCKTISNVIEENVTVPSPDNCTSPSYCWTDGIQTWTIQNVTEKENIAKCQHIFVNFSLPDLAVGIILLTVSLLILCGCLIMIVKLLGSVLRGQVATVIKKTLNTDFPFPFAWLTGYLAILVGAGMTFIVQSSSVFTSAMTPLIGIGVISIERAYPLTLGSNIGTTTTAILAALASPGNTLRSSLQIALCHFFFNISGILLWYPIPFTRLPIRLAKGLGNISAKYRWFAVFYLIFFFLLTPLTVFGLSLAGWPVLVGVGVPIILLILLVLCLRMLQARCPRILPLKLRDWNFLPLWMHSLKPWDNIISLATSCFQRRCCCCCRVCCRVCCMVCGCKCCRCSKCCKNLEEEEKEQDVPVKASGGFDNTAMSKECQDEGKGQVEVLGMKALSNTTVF
Format: cell-based
In short: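 Oocytes injected with rat NaPi-2b cRNA, cultured 2 d, then 32P uptake measured with compound. Values: % inhibition at 300 and 100 μM, both from one inhibition curve.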

| IC50 | Compound |
| --- | --- |
| 3540 nM | O=C(Nc1ccc(Br)cc1C(=O)N/N=C/c1cccc(F)c1)c1ccc(CSc2ccncc2)cc1 [Compound 255, N-[4-Bromo-2-(3-fluoro-benzylidene-hydrazinocarbonyl)-phenyl]-4-(pyridin-4-ylsulfanylmethyl)-benzamide] |
| < 10000 nM | O=C(Nc1ccc(Br)cc1C(=O)N/N=C/c1ccc(F)cc1)c1ccc(CSc2ccncc2)cc1 [Compound 256, N-[4-Bromo-2-(4-fluoro-benzylidene-hydrazinocarbonyl)-phenyl]-4-(pyridin-4-ylsulfanylmethyl)-benzamide] |
| < 3000 nM | Cc1cccc(/C=N/NC(=O)c2cc(Br)ccc2NC(=O)c2ccc(CSc3ccncc3)cc2)c1 [Compound 257, N-[4-Bromo-2-(3-methyl-benzylidene-hydrazinocarbonyl)-phenyl]-4-(pyridin-4-ylsulfanylmethyl)-benzamide] |
| < 3000 nM | Cc1ccc(/C=N/NC(=O)c2cc(Br)ccc2NC(=O)c2ccc(CSc3ccncc3)cc2)cc1 [Compound 258, N-[4-Bromo-2-(4-methyl-benzylidene-hydrazinocarbonyl)-phenyl]-4-(pyridin-4-ylsulfanylmethyl)-benzamide] |
| < 3000 nM | Cc1ccc(/C=N/NC(=O)c2cc(Br)ccc2NC(=O)c2ccc(CSc3ccncc3)cc2)cc1C [Compound 259, N-[4-Bromo-2-(3,4-dimethyl-benzylidene-hydrazinocarbonyl)-phenyl]-4-(pyridin-4-ylsulfanylmethyl)-benzamide] |
| < 3000 nM | O=C(Nc1ccc(Br)cc1C(=O)N/N=C/c1cccc(F)c1)c1ccc(CSCCO)cc1 [Compound 261, N-[4-Bromo-2-(3-fluoro-benzylidene-hydrazinocarbonyl)-phenyl]-4-(2-hydroxy-ethylsulfanylmethyl)-benzamide] |
| < 1000 nM | Cc1cccc(/C=N/NC(=O)c2cc(Br)ccc2NC(=O)c2ccc(CSCCO)cc2)c1 [Compound 263, N-[4-Bromo-2-(3-methyl-benzylidene-hydrazinocarbonyl)-phenyl]-4-(2-hydroxy-ethylsulfanylmethyl)-benzamide] |
| < 1000 nM | Cc1ccc(/C=N/NC(=O)c2cc(Br)ccc2NC(=O)c2ccc(CSCCO)cc2)cc1C [Compound 265, N-[4-Bromo-2-(3,4-dimethyl-benzylidene-hydrazinocarbonyl)-phenyl]-4-(2-hydroxy-ethylsulfanylmethyl)-benzamide] |
| < 1000 nM | O=C(Nc1ccc(Br)cc1C(=O)N/N=C/c1ccc(Cl)c(C(F)(F)F)c1)c1ccc(CSCCO)cc1 [Compound 266, N-[4-Bromo-2-(4-chloro-3-trifluoromethyl-benzylidene-hydrazinocarbonyl)-phenyl]-4-(2-hydroxy-ethylsulfanylmethyl)-benzamide] |
| 430 nM | Cc1ccc(/C=N/NC(=O)c2cc(Br)ccc2NC(=O)c2cccc(CSc3nc[nH]n3)c2)cc1C [Compound 267, N-[4-Bromo-2-(3,4-dimethyl-benzylidene-hydrazinocarbonyl)-phenyl]-3-(1H-[1,2,4]triazol-3-ylsulfanylmethyl)-benzamide] |
| 1020 nM | Cc1ccc(/C=N/NC(=O)c2cc(Br)ccc2NC(=O)c2cccc(CSc3nc[nH]n3)c2)cc1 [Compound 268, N-[4-Bromo-2-(4-methyl-benzylidene-hydrazinocarbonyl)-phenyl]-3-(1H-[1,2,4]triazol-3-ylsulfanylmethyl)-benzamide] |
| 2190 nM | Cc1cccc(/C=N/NC(=O)c2cc(Br)ccc2NC(=O)c2cccc(CSc3nc[nH]n3)c2)c1 [Compound 269, N-[4-Bromo-2-(3-methyl-benzylidene-hydrazinocarbonyl)-phenyl]-3-(1H-[1,2,4]triazol-3-ylsulfanylmethyl)-benzamide] |
| 5040 nM | O=C(Nc1ccc(Br)cc1C(=O)N/N=C/c1ccc(F)cc1)c1cccc(CSc2nc[nH]n2)c1 [Compound 270, N-[4-Bromo-2-(4-fluoro-benzylidene-hydrazinocarbonyl)-phenyl]-3-(1H-[1,2,4]triazol-3-ylsulfanylmethyl)-benzamide] |
| 210 nM | O=C(Nc1ccc(Br)cc1C(=O)N/N=C/c1cccc(F)c1)c1cccc(CSc2nc[nH]n2)c1 [Compound 271, N-[4-Bromo-2-(3-fluoro-benzylidene-hydrazinocarbonyl)-phenyl]-3-(1H-[1,2,4]triazol-3-ylsulfanylmethyl)-benzamide] |
| 470 nM | O=C(Nc1ccc(Br)cc1C(=O)N/N=C/c1ccc(Cl)c(C(F)(F)F)c1)c1cccc(CSc2nc[nH]n2)c1 [Compound 272, N-[4-Bromo-2-(4-chloro-3-trifluoromethyl-benzylidene-hydrazinocarbonyl)-phenyl]-3-(1H-[1,2,4]triazol-3-ylsulfanylmethyl)-benzamide] |
| 150 nM | Cc1ccc(/C=N/NC(=O)c2cc(Br)ccc2NC(=O)c2ccc(CSCCCO)cc2)cc1C [Compound 273, N-[4-Bromo-2-(3,4-dimethyl-benzylidene-hydrazinocarbonyl)-phenyl]-4-(3-hydroxy-propylsulfanylmethyl)-benzamide] |
| 1040 nM | Cc1ccc(/C=N/NC(=O)c2cc(Br)ccc2NC(=O)c2ccc(CSCCCO)cc2)cc1 [Compound 274, N-[4-Bromo-2-(4-methyl-benzylidene-hydrazinocarbonyl)-phenyl]-4-(3-hydroxy-propylsulfanylmethyl)-benzamide] |
| 1730 nM | Cc1cccc(/C=N/NC(=O)c2cc(Br)ccc2NC(=O)c2ccc(CSCCCO)cc2)c1 [Compound 275, N-[4-Bromo-2-(3-methyl-benzylidene-hydrazinocarbonyl)-phenyl]-4-(3-hydroxy-propylsulfanylmethyl)-benzamide] |

Same assay, conditions: phosphate uptake, oocytes expressing rat NaPi-2b; 300 μM, determined from inhibition curve

| inhibition at 300 µM | Compound |
| --- | --- |
| 59.1% | CC(C)(C)c1cccc(/C=N/NC(=O)c2ccccc2NC(=O)c2ccccc2F)c1O [Compound 239, N-[2-(3-Tert-butyl-2-hydroxy-benzylidene-hydrazinocarbonyl)-phenyl]-2-fluoro-benzamide] |
| 37.9% | COc1ccc(C(=O)Nc2ccccc2C(=O)N/N=C/c2ccc([N+](=O)[O-])cc2)cc1OC [Compound 240, 3,4-Dimethoxy-N-[2-(4-nitro-benzylidene-hydrazinocarbonyl)-phenyl]-benzamide] |
| 46.9% | CCN(CC)c1ccc(/C=N/NC(=O)c2ccccc2NC(=O)c2ccc(OC)c(OC)c2)cc1 [Compound 241, N-[2-(4-Diethylamino-benzylidene-hydrazinocarbonyl)-phenyl]-3,4-dimethoxy-benzamide] |
| 37.6% | COc1cc(OC)cc(C(=O)Nc2ccc(O)cc2C(=O)N/N=C/c2cccc(F)c2)c1 [Compound 242, N-[2-(3-Fluoro-benzylidene-hydrazinocarbonyl)-4-hydroxy-phenyl]-3,5-dimethoxy-benzamide] |
| 50.2% | COc1ccc(C(=O)Nc2ccc(Br)cc2C(=O)N/N=C/c2ccccn2)cc1OC [Compound 243, N-[4-Bromo-2-(pyridin-2-ylmethylene-hydrazinocarbonyl)-phenyl]-3,4-dimethoxy-benzamide] |
| 30.7% | COc1ccc(C(=O)Nc2ccc(Cl)cc2C(=O)N/N=C/c2ccccn2)cc1OC [Compound 244, N-[4-Chloro-2-(pyridin-2-ylmethylene-hydrazinocarbonyl)-phenyl]-3,4-dimethoxy-benzamide] |
| 31.7% | COc1ccc(C(=O)Nc2ccccc2C(=O)N/N=C/c2ccccn2)cc1OC [Compound 245] |
| 32.6% | COc1ccc(C(=O)Nc2ccc(Cl)cc2C(=O)N/N=C/c2cccc(C)n2)cc1OC [Compound 246, N-[4-Chloro-2-(6-methyl-pyridin-2-ylmethylene-hydrazinocarbonyl)-phenyl]-3,4-dimethoxy-benzamide] |
| 34.8% | COc1ccc(C(=O)Nc2ccccc2C(=O)N/N=C/c2cccc(C)n2)cc1OC [Compound 247, 3,4-Dimethoxy-N-[2-(6-methyl-pyridin-2-ylmethylene-hydrazinocarbonyl)-phenyl]-benzamide] |
| 30.3% | Cc1cccc(C=NNC(=O)c2cc(Br)ccc2NC(=O)c2ccc(C(C)(C)C)cc2)c1 [Compound 248, N-[4-Bromo-2-(3-methyl-benzylidene-hydrazinocarbonyl)-phenyl]-4-tert-butyl-benzamide] |
| 41.6% | C/C(=N\NC(=O)c1ccccc1NC(=O)c1ccncc1)c1cccc(C)c1 [Compound 249, N-[2-(1-m-Toluyl-ethylidene-hydrazinocarbonyl)-phenyl]-isonicotinamide] |
| 37.9% | C/C(=N\NC(=O)c1cc(Cl)ccc1NC(=O)c1cccnc1)c1cccc(C)c1 [Compound 250, N-[4-Chloro-2-(1-m-toluyl-ethylidene-hydrazinocarbonyl)-phenyl]-nicotinamide] |
| 31.2% | C/C(=N\NC(=O)c1ccccc1NC(=O)c1cccnc1)c1ccc(C)cc1 [Compound 251, N-[2-(1-p-Toluyl-ethylidene-hydrazinocarbonyl)-phenyl]-nicotinamide] |
